# From paper PMC5144071, “Functional characterization of aconitase X as a cis-3-hydroxy-L-proline dehydratase” (Scientific Reports, 2016)
# Legend:
# [1] = biological target: T1, TrLhpI (AcnX Type I) (Trichoderma reesei, UniProt G0REW7); test: substrate turnover by purified enzyme (amino acid analyzer, Lineweaver-Burk kinetics); type: biochemical
# T1 construct: gene lhpI; N-terminal (His)6-tagged recombinant protein
# T1 sequence (G0REW7 1-596): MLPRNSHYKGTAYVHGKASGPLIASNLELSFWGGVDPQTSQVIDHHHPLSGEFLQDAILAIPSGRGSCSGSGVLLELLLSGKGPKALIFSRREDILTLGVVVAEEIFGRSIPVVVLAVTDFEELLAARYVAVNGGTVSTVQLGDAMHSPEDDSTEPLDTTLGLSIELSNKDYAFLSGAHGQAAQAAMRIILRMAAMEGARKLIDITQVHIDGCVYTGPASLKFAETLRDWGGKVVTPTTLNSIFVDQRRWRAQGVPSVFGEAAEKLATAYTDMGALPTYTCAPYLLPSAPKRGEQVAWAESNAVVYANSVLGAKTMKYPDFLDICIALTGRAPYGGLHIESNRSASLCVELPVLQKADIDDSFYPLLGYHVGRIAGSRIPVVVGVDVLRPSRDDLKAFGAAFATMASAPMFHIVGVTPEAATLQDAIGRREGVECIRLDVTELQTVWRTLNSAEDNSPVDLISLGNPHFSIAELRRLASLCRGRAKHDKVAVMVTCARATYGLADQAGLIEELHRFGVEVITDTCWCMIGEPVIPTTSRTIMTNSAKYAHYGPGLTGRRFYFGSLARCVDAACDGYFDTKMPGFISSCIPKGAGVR
# [2] = biological target: T2, PaLhpI (aconitase X, AcnX Type I; cis-3-hydroxy-L-proline dehydratase) (Pseudomonas aeruginosa, UniProt Q9I485); test: substrate turnover by purified enzyme (HPLC/amino acid analyzer, 1H NMR, coupled assay); type: biochemical; set-up: gene lhpI; N-terminal (His)6-tagged recombinant protein
# T2 sequence (Q9I485 whole entry): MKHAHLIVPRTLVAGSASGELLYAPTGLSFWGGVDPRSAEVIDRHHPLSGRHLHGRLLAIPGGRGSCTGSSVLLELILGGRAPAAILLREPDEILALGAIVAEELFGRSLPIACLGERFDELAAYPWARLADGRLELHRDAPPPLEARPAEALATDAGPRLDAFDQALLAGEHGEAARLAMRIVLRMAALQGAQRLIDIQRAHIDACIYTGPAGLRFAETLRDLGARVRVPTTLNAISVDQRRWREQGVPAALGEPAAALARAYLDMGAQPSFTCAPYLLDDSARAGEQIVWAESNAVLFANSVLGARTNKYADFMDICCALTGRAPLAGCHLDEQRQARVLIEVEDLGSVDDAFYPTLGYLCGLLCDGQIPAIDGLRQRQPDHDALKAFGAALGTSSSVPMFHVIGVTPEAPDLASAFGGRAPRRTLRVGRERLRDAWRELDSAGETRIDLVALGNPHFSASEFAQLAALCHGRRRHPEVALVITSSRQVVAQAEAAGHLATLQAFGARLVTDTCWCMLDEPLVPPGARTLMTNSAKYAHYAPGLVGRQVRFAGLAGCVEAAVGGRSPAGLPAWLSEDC
# [3] = biological target: T3, AtLhpI (AcnX Type I) (Agrobacterium fabrum, UniProt A9CH00); test: substrate turnover by purified enzyme, Lineweaver-Burk kinetics; type: biochemical
# T3 construct: gene lhpI; N-terminal (His)6-tagged recombinant protein
# T3 sequence (A9CH00 1-569): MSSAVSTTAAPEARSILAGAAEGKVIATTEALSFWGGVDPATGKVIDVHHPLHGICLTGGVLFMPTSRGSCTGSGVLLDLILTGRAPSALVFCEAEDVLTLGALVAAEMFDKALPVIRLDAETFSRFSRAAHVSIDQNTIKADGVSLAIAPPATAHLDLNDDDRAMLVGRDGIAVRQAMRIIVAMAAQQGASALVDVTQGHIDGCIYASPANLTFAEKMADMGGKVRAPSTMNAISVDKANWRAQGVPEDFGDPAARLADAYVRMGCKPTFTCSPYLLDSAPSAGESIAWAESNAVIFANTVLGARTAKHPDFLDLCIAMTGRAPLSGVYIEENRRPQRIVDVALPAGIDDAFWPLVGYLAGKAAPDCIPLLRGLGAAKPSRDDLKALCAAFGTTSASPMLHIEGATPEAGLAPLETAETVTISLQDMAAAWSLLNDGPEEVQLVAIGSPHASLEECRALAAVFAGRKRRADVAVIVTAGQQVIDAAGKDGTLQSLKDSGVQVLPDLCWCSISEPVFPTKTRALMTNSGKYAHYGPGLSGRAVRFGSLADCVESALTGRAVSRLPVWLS
# [4] = biological target: T4, PaLhpL (Pseudomonas aeruginosa, UniProt Q9I489); test: bifunctional dehydratase and 2-epimerase activity (details in supplement, Fig. S6); type: biochemical
# T4 construct: gene lhpL
# T4 sequence (Q9I489 1-344): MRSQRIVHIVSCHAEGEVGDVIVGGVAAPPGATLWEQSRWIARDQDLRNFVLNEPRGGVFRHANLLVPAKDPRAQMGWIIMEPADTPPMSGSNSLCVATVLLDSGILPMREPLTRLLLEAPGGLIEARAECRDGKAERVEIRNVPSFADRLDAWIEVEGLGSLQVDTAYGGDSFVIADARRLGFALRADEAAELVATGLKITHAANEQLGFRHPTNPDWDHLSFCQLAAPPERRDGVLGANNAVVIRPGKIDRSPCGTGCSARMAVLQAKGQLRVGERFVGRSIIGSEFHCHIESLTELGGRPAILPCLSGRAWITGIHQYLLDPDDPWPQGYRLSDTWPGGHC
# [5] = biological target: T2, PaLhpI (aconitase X, AcnX Type I; cis-3-hydroxy-L-proline dehydratase); set-up: gene lhpI
# [6] = biological target: T2, PaLhpI (aconitase X, AcnX Type I; cis-3-hydroxy-L-proline dehydratase); test: substrate turnover by purified enzyme (HPLC), coupled with reductase; type: biochemical; set-up: gene lhpI; N-terminal (His)6-tagged recombinant protein
compound,measurement,setting,value
O=C(O)[C@H]1NCC[C@H]1O [cis-3-hydroxy-L-proline],"substrate turnover by purified enzyme (amino acid analyzer, Lineweaver-Burk kine)",[1],3.75 µmol/min/mg
same,"substrate turnover by purified enzyme (HPLC/amino acid analyzer, 1H NMR, coupled)",[2],39.5 µmol/min/mg
same,"substrate turnover by purified enzyme, Lineweaver-Burk kinetics",[3],"among eight proline derivatives (Fig. S1), only cis-3-hydroxy-L-proline was consumed in a time-dependent manner by both proteins"
O=C(O)[C@H]1NCC[C@@H]1O [trans-3-hydroxy-L-proline],"bifunctional dehydratase and 2-epimerase activity (details in supplement, Fig. S)",[4],PaLhpL gene (PA1255; Fig. 1d) in the L-hydroxyproline gene cluster encodes a bifunctional dehydratase and 2-epimerase toward trans-3-hydroxy-L-proline
O=C(O)c1ccc[nH]1 [pyrrole-2-carboxylate],IC50,[5],~ 440-fold that of Cd^2+ (2.05 × 10^−3 mM)
"O=C(O)[C@H]1NC[C@@H](O)[C@H]1O [2,3-cis-3,4-cis-3,4-dihydroxy-L-proline]","substrate turnover by purified enzyme (HPLC), coupled with reductase",[6],0.130 µmol/min/mg
